# In patent publication EP4140481A1, “PROTEIN-OLIGOMER BINDING AGENTS AND THERAPEUTIC USES THEREOF” (Galyan Bio, Inc., priority 2021, dated 2023):
# How the values were obtained:
# C. elegans [1] = assay: C. elegans lifespan assay (Automated Lifespan Machine); format: in vivo
# Method: Experimental Design: The lifespan assay was initiated by expanding all replicate groups to more than 1000 worms, then synchronizing by bleaching and allowing larval worms to hatch and arrest. To eliminate the effect of bacterial metabolism and growth on lifespan, synchronized worms were only exposed to dead food bacteria. To suppress progeny, worms are transferred to media containing 5-Fluorodeoxyuridine (FUdR) within 54-60 hours post plating. Worms are inspected at 24 and48 hours after this transfer to confirm infertility. Finally, the worms are inspected for general health and morphology before transferring to scanner plates. The scanner plates are incubated for an additional 2 days and inspected again before loading on to scanners. To understand the physiological impact of either genetic variation or pharmacological treatment on aging, it is crucial to use quantitative models. The analysis of lifespan data is grounded in the study of two mathematical functions: the survival curve and the hazard function. The survival curve (Figure 54) describes the fraction of a tested population that remains alive over time. The hazard function (Figure 55) is related to the survival curve and provides an intuitive measure of the risk of death. This function describes the probability that atypical individual who is currently alive will soon die, providing a clear visualization of the way a treatment may change patterns in mortality. To obtain high-resolution lifespan data and eliminate confounding factors such as worm handling and operator bias, lifespan data was collected using an Automated Lifespan Machine (ALM). Three biological replicates, derived from synchronizing three independently-maintained lines of N2 worms, were distributed across scanner instruments. Images of the worms were then collected for the next 35 days with no interruption or manipulations. Some plates were excluded after quality checks, but plate number and worm counts for all replicates exceeded the threshold for statistical significance (Table 32, row 1).Lifespan data are represented as the percent of worms surviving over time and the profile of this curve can be modeled by the Kaplan-Meier Estimate of Survival function (Figure 54). The survival curves can be compared by several statistics including mean, median, and maximum lifespan (Table 32), as well as the age of worms at a specific percent survival (Table 34). However, to determine whether one treatment group lived longer than another, survival curves are holistically compared using a log-rank test (Table 33). In this study, all pairwise comparisons between conditions were statistically significant. Tables 32 to 34 detail the raw measurements, calculations, and statistical analysis related to the survival curve in Figure 54. Lifespan is counted with day 0 set at day 1 of adulthood. No death times are recorded until worms are placed on the scanner on day 8 so earlier deaths are excluded from calculations of mean and median. Median lifespan is equal to the time at which 50% of the subjects have died. Mean lifespan is calculated from the area under the survival curve. Maximum lifespan is equal to 95th percentile of lifespans in each group. C.I.: Confidence Interval. See Figure 55 and Table 33 for statistical analysis Table 33: Pairwise statistical analysis of survival curves.
# C. elegans [2] = conditions: in vivo
# Method: Background: First, acute toxicity assays were performed to test the toxicity of the compounds in adult worms by simulating the actual conditions of the lifespan assay. This accomplished two things. First, in the early stages it determines doses that are acutely toxic to adult worms. Second, over time the worms are scored to rule out doses that despite low initial toxicity, will likely have a negative impact on lifespan. Worms are plated on the exact media and sealed plates that will be used in the lifespan assay and then incubated at 25°C to provide a pilot lifespan that helps catch any other dosing and delivery pitfalls early. Adult worms were monitored in the days immediately following exposure for lethality or any other obvious defects.
# Results: Worms were treated with either vehicle control or Compound 4 at concentrations of 50nM, 500nM, 5µM, 50µM, and 500µM. […] The exception is that the worms are incubated at 25°C instead of 20°C to accelerate the aging process. […] Worms were then scored periodically for early deaths. Worms treated with 5 µM Compound 4 or higher concentrations began to decline faster than vehicle control-treated worms. As these doses would be unlikely to increase lifespan in an actual lifespan assay, this placed the upper boundary of effective concentrations between 500 nM and 5 µM (Figure 52 (B)). […]
# [3] = target: T1, Wild type (wt) α-Synuclein (Homo sapiens, UniProt P37840); assay: Dynamic Light Scattering (DLS), induced aggregation; format: biochemical
# T1 construct: purchased rPeptide, Watkinsville, Georgia S-1001-2
# Method: In order to induce the formation of smaller oligomers of the α-Synuclein protein it was hypothised that using DMSO as a solvent induces oligomer formation Kostka et al., THE JOURNAL OF BIOLOGICAL […] VOL. 283, NO. 16, pp. 10992-11003, April 18, 2008). In order to assess the ability of certain compounds to induce formation of aggregates from protein-oligomers, the following experiments were conducted.
# Proteins were ultracentrifuged with 50,000 rpm (rounds per minute) for one hour at 2 °C. The supernatant was used for DLS measurements. DLS measurements were conducted with Malvern Zetasizer Nano (Malvern Panalytical Ltd, United Kingdom).
# Wild type (wt) α-Synuclein (catalog S-1001-2, rPeptide, Watkinsville, Georgia) was solved in 20 mM phosphate, pH 7.4 buffer.
# As mentioned, it was described that 1% DMSO was used to induce α-Synuclein to form small oligomers (Kostka et al., THE JOURNAL OF BIOLOGICAL […] VOL. 283, NO. 16, pp. 10992-11003, April 18, 2008). 1% DMSO (Sigma) was used to trigger small oligomer formation of wt α-Synuclein. 1% DMSO was added to wt α-Synuclein to measure the effect of DMSO alone on wt α-Synuclein. With DLS there is no volume difference detectable between wt α-Synuclein with and without 1% DMSO (Figure 44). […] 1% DMSO induces the formation of small oligomers, which interact with Compound 4 and form larger aggregates of the oligomers.
# STHdh 111/111 = assay: Morphology of striatal cells expressing mutated huntingtin; format: cell-based, mouse; conditions: treated versus not treated STHdh 111/111
# [4] = by volume, 70 µM equimolar Compound 4 solved in methanol
# [5] = by volume, equimolar Compound 4 solved in DMSO (1% DMSO)
compound,measurement,setting,value
"CCc1c(C)[nH]c2ccc(C(=O)NCCN(CC)CC)cc12 [Compound 4, N-(2-(diethylamino)ethyl)-3-ethyl-2-methyl-1H-indole-5-carboxamide]",Age at 25% mortality,C. elegans [1]; 200 nM,21.42 days
same,Age at 50% mortality,C. elegans [1]; 200 nM,26.16 days
same,Age at 75% mortality,C. elegans [1]; 200 nM,29.57 days
same,Age at 90% mortality,C. elegans [1]; 200 nM,31.75 days
same,Age at 100% mortality,C. elegans [1]; 200 nM,39.46 days
same,Median lifespan,C. elegans [1]; 200nM (vehicle control 24.3),26.2 days
same,Mean lifespan,C. elegans [1]; 200nM (vehicle control 24.7),25.7
same,Maximum lifespan,"C. elegans [1]; 200nM (vehicle control 34.9), 95th percentile",33.7 days
same,Age at 25% mortality,C. elegans [1]; 2 µM,23.9 days
same,Age at 50% mortality,C. elegans [1]; 2 µM,27.54 days
same,Age at 75% mortality,C. elegans [1]; 2 µM,29.41 days
same,Age at 90% mortality,C. elegans [1]; 2 µM,31.23 days
same,Age at 100% mortality,C. elegans [1]; 2 µM,39.42 days
same,Median lifespan,C. elegans [1]; 2µM (vehicle control 24.3),27.6 days
same,concentration at which worms began to decline faster than vehicle control-treated worms,C. elegans [2],≥ 5 µM
same,aggregation of wt α-Synuclein,[3]; Compound 4 solved in DMSO,forms aggregates
same,"% Volume, Peak 2",[3]; [4],0.3%
same,"% Volume, Peak 3",[3]; [4],0.3%
same,"Size, Peak 1",[3]; [4],6.139 nm
same,"Size, Peak 2",[3]; [4],80.87 nm
same,"Size, Peak 3",[3]; [4],338.7 nm
same,"% Volume, Peak 1",[3]; [5],96.2%
same,"% Volume, Peak 2",[3]; [5],3.8%
same,"Size, Peak 1",[3]; [5],144.0 nm
same,"Size, Peak 2",[3]; [5],4794 nm
same,cell morphology,STHdh 111/111,"improved cell viability, dendrite outgrowth and increased cell size"
